Reference: US5922697A, “Compounds, compositions and methods for inhibiting the binding of proteins containing an SH2 domain to cognate phosphorylated proteins” (Warner-Lambert Company, priority 1998, dated 1999)
pIC50: −log10 of the molar value.

Assays:
[1] = target: T1, p85(C) SH2-GST binding to PDGF receptor kinase domain (Homo sapiens, UniProt P27986); test: Inhibition of activated PDGF receptor binding to 35S-SH2 domains: p85(C) SH2-GST; conditions: 35S-p85(C) SH2-GST, immobilized PDGF receptor kinase domain, pH 7.5, room temperature, 30 minutes
T1 construct: S-X-SH2-GST (X=Src, Ab1, Grb2, p85-N, p85-C, Syp-N, and PLCy-C domains)

[2] = target: T2, Abl SH2-GST binding to PDGF receptor kinase domain (Homo sapiens, UniProt P00519); test: Inhibition of activated PDGF receptor binding to 35S-SH2 domains: Abl SH2-GST
T2 construct: S-X-SH2-GST (X=Src, Ab1, Grb2, p85-N, p85-C, Syp-N, and PLCy-C domains)
T2 sequence (P00519 127-217 limits assumed): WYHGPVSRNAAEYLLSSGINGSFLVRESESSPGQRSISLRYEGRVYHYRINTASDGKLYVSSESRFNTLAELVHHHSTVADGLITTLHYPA
Method: Inhibition of Activated PDGF Receptor Binding to ^35 S-SH2 Domains
The assay was conducted at room temperature for 30 minutes while continuously inverting the plate. The resultant SH2-GST-PDGF receptor kinase complex was separated from excess ^35 S-SH2-GST protein by vacuum filtration and the amount of bound SH2-GST was determined by scintillation counting. Results are expressed as IC50 values and/or % inhibition at specified concentrations in Table 2 below.

[3] = target: T3, Grb2 SH2-GST binding to PDGF receptor kinase domain (Homo sapiens, UniProt P62993); test: Inhibition of activated PDGF receptor binding to 35S-SH2 domains: Grb2 SH2-GST; conditions: 35S-Grb2 SH2-GST, immobilized PDGF receptor kinase domain, pH 7.5, room temperature, 30 minutes
T3 construct: S-X-SH2-GST (X=Src, Ab1, Grb2, p85-N, p85-C, Syp-N, and PLCy-C domains)

[4] = target: T4, Syp(N) SH2-GST binding to PDGF receptor kinase domain (Homo sapiens, UniProt Q06124); test: Inhibition of activated PDGF receptor binding to 35S-SH2 domains: Syp(N) SH2-GST; conditions: 35S-Syp(N) SH2-GST, immobilized PDGF receptor kinase domain, pH 7.5, room temperature, 30 minutes
T4 construct: S-X-SH2-GST (X=Src, Ab1, Grb2, p85-N, p85-C, Syp-N, and PLCy-C domains)

[5] = target: T5, PLCγ(C) SH2-GST binding to PDGF receptor kinase domain (Homo sapiens, UniProt P19174); test: Inhibition of activated PDGF receptor binding to 35S-SH2 domains: PLCγ(C) SH2-GST; conditions: 35S-PLCγ(C) SH2-GST, immobilized PDGF receptor kinase domain, pH 7.5, room temperature, 30 minutes
T5 construct: S-X-SH2-GST (X=Src, Ab1, Grb2, p85-N, p85-C, Syp-N, and PLCy-C domains)
T5 sequence (P19174 668-756 limits assumed): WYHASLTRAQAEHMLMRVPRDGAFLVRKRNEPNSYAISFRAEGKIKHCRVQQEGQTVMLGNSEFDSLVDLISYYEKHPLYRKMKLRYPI

Abl SH2 = target: T6, Abl SH2 (Homo sapiens, UniProt P00519); test: Inhibition of 125I-phosphopeptide binding to immobilized Abl SH2; conditions: competitive 125I-phosphopeptide displacement, GST-Abl SH2 fusion protein, pH 7.5, room temperature, 20 minutes; read-out: IC50, Abl SH2 Binding
T6 construct: glutathione-S-transferase(GST)-Abl SH2 fusion protein
T6 sequence (P00519 127-217 limits assumed): T2 sequence (P00519 127-217 limits assumed)
Method: The binding affinities of compounds of the present invention to Abl SH2 was determined using a competitive radiolabeled phosphopeptide displacement assay. […] Binding was performed at room temperature for 20 minutes while continuously inverting the plate.

Src SH2 = target: T7, Src SH2 (Homo sapiens, UniProt P12931); test: Inhibition of 125I-phosphopeptide binding to immobilized Src SH2; conditions: competitive 125I-phosphopeptide displacement, GST-Src SH2 fusion protein, pH 7.5, room temperature, 20 minutes; read-out: IC50, SRC SH2 Binding
T7 construct: glutathione-S-transferase(GST)-Src SH2 fusion protein
Method: The binding affinities of compounds of the present invention to Src SH2 was determined using a competitive radiolabeled phosphopeptide displacement assay.
Binding was performed at room temperature for 20 minutes while continuously inverting the plate. […] Results are expressed as IC50 values in Table 1 below.

Swiss 3T3 cells = test: Inhibition of DNA synthesis as monitored by 3H-thymidine uptake; assay type: cell-based; conditions: Swiss 3T3 cells stimulated with growth factor (PDGFbb or Fetal Bovine Serum), 24 hours; compound concentration not given
Method: Inhibition of DNA Synthesis as Monitored by ^3 H-Thymidine Uptake
DNA synthesis occurs when a cell is exposed to Platelet Derived Growth Factor (PDGF). For PDGF-induced DNA synthesis to occur, c-SRC or another member of the SRC gene family is required. The ability of the SRC SH2 inhibitors of the present invention to block PDGF-stimulated DNA synthesis can be assessed using the protocol set forth below.
Swiss 3T3 cells were grown in 12-well plates for 3 days to approximately 50% confluency. The growth media was removed and replaced with 1.0 mL/well of assay buffer (Dulbecco's Modified Eagle Medium containing 0.2% Bovine Serum Albumin), and incubated for 24 hours to arrest growth.
Test compounds (5 μL) were add at 100 times their final concentration. Methyl sulfoxide was used as a control and levels in all wells kept under 1.0% of DMSO. Cells were then stimulated with growth factor (PDGFbb or Fetal Bovine Serum), and allowed to incubate another 24 hours.
During the final 2 hours of treatment, 5 uL of 0.1 μCi/μL ^3 H-thymidine was added to each well (final=0.5 μCi/well)
After incubation the medium was removed by aspiration, and each well was washed twice with ice-cold phosphate buffered saline (0.5 mL/wash). 0.5 mL ice-cold 5% trichloroacetic acid was added to each well and incubated on ice for a minimum 10 minutes. The trichloroacetic acid solution was removed and each well was washed twice with 0.5 mL ice-cold trichloroacetic acid, and then once with ice-cold water (0.5 mL). 0.5 mL of 2% Sodium Dodecyl Sulfate was added to each well to solubilize the cells and allowed to incubate at room temperature for 10-15 minutes. The solubilized cells were transfered to 20 mL scintillation vials. Each well was washed with 0.5 mL of water and combined with the corresponding scintillation vial. 10 mL of Ready-Gel scintillation cocktail was added to each vial and the vials were then counted in a scintillation counter. Results are shown as percent of ^3 H-thymidine uptake relative to control in Table 4 below.

T7 sequence (P12931 151-248 limits assumed): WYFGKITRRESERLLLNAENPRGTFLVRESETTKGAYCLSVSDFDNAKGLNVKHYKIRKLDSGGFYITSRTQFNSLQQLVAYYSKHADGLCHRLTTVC
T3 sequence (P62993 60-152 limits assumed): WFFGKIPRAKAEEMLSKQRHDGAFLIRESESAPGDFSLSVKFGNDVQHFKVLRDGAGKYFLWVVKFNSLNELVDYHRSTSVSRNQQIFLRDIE
T1 sequence (P27986 624-718 limits assumed): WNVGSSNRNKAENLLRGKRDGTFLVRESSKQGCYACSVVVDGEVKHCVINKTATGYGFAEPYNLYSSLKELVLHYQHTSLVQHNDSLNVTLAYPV
T4 sequence (Q06124 6-102): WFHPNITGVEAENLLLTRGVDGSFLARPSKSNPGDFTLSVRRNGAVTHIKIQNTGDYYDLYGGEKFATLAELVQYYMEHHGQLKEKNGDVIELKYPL

pIC50 (Abl SH2) | pIC50 (Src SH2) | SMILES | pIC50 [1] | pIC50 [2] | pIC50 [3] | pIC50 [4] | pIC50 [5] | 3H-Thymidine Uptake, % Uptake Relative to Control (Swiss 3T3 cells) [%]
 |  | CC(=O)N[C@@H](Cc1ccc(OP(=O)(O)O)cc1)C(=O)NC(C)c1ccc(OCC2CCCCC2)c(C(N)=O)c1 (mixture of isomers) [Example 51, Phosphoric acid mono-(4-{(S)-2-acetylamino-2-[(RS)-1-(3-carbamoyl-4-cyclohexylmethoxy-phenyl)-ethylcarbamoyl]-ethyl}-phenyl) ester] | < 4.00 | 4.92 | ~4.00 | ~4.00 | < 4.00 | 
5.70 | 6.52 | CC(=O)N[C@@H](Cc1ccc(C(F)(F)P(=O)(O)O)cc1)C(=O)NC(C)c1ccc(OCC2CCCCC2)c(C(N)=O)c1 (single isomer, unassigned) [Example 63a, [S-(R*,R*)]- or [S-(R*,S*)]-[(4-{2-Acetylamino-2-[1-(3-carbamoyl-4-cyclohexylmethoxy-phenyl)-ethylcarbamoyl]-ethyl]-phenyl)-difluoro-methyl]-phosphonic acid] |  |  |  |  |  | 73
< 4.00 | < 4.00 | CC[C@H](NC(=O)[C@H](Cc1ccc(C(F)(F)P(=O)(O)OCOC(=O)C(C)(C)C)cc1)NC(C)=O)C(=O)N(C)CCCC1CCCCC1 [Example 55, [S-(R*,R*)]-2,2-Dimethyl-propionic acid {[4-(2-acetylamino-2-{1-[(3-cyclohexyl-propyl)-methyl-carbamoyl]-propylcarbamoyl}-ethyl)-phenyl]-difluoro-methyl}-hydroxy-phosphinoyloxymethyl ester] |  |  |  |  |  | 61
